PubChem BioAssay AID602160 (Broad Institute, 2011)
Inconclusive results are not listed.

Target: Plasmodium falciparum Hsp90 (expressed in yeast GR reporter strain)
Experiment: decrease of GR reporter signal in PfHsp90 yeast, dose response, S. cerevisiae, beta-gal luminescence, dry powder samples (AID 602160)

Cc1ccc(OCc2n[nH]c(=S)n2C2CCCCC2)cc1
AC50: 20.2 µM

O=C(CSCC(=O)N1CCCCC1)Nc1nc(-c2ccc(Cl)s2)cs1
AC50: 19.6 µM

O=S(=O)(NC1CCCCCC1)c1ccc(Br)s1
AC50: 10.7 µM

O=S(=O)(/C=C/c1ccccc1)NC1CCCCCCC1
AC50: 15.1 µM
